Measurements reported in patent US10261017B2, “Methods for detecting and categorizing skin sensitizers” (University of Mississippi, priority 2014, dated 2019).
Where “and” joins values, the source holds several entries; their conditions need not be identical. Identical values can stand only once. Like-named read-outs stand apart in the source and are kept apart here. Marks after values point to notes of the source that are not given here. Blank lines part the entries; values can stand above or below the molecule they belong to.

Tests used:
thiol peptide [1] = assay: Cys-DPRA (Direct Peptide Reactivity Assay), literature data; conditions: for Cys-DPRA binary classification: FP: false positive; for Cys-DPRA binary classification: TN: true negative; for Cys-DPRA binary classification: TP: true positive; for Cys-DPRA binary classification: FN: false negative
[2] = Microplate spectrophotometric method (DCYA assay), fluorescence end-point; conditions: for Fluorescence response, Reaction (R), average of 9 readings: DCYA + test article + pH 10 buffer + resin; for DCYA 100-RI: RI = reactivity index, 2 equiv. electrophile, pH 10 buffer; for DCYA binary classification: FN: false negative; for DCYA binary classification: FP: false positive; for DCYA binary classification: TN: true negative; for DCYA binary classification: TP: true positive, positive if 100-RI <95; for DCYA assay reactivity / classification in words: microplate spectrophotometric method
[3] = NMR method: depletion of electrophile signal on reaction with DCYA
Description: The described example can be applied to pure chemicals and mixtures. The method includes the acquisition of at least one NMR spectrum, mixing an electrophile and a nucleophile to acquire an array of control spectra and an addition of catalyst to record an array of reaction spectra. It also includes the quantification of at least one signal and the comparison of the signal with a control and the classification of the reaction based on the depletion of potential sensitizer based on the quantified residual signal.
2,5-Dimethylfuran was used as internal standard. When necessary, characterization of the product(s) formed during the reaction(s) was performed by homonuclear ^1H connectivities using 2D-COSY experiments. […] Two- and three bond ^1H-^13C connectivities were determined by gradient-HMBC experiments in which the evolution period for long-range ^1H-^13C coupling constants was optimized for a ^2,3JC,H of 8 Hz. Through-space ^1H connectivities were determined using a NOESY experiment with a mixing time of 0.450 s. […] Toronto, Canada].
In a 3 mm NMR tube, 1 volume of DCYA (100) mM in CDCl3) was mixed with one volume of sensitizer (100 mM in CDCl3) to give a final concentration of 50 mM for both DCYA and the sensitizer. Control ^1H NMR spectra (reference spectra) were recorded at regular intervals of for a minimum of 5 min. […] All spectra were recorded at constant temperature. All experiments were conducted using the manufacturer's standard presaturation pulse programs and experimental conditions were chosen as explained in NMR spectroscopy section. The progress of the reaction was followed by the diminished peak areas of the resonances for the signal of interest. The spectra were phased, referenced, and integrated using NMR data elaboration software. The structural characterizations of the resulting adducts were confirmed by conducting additional 2D-NMR experiments when necessary.
Covalent reaction of DCYA with carvone is dependent on the activation of the nucleophilic group (ex. sulfhydryl group to the reactive thio-anion) under basic conditions. This reaction is strongly dependent on the nature of the nucleophile and may be modulated by careful choice of the model nucleophile and the reaction conditions.
The control spectra are used as reference spectra (FIG. 3A). All the spectra were subjected to automatic phase and baseline correction using a Bernstein polynomial fit (order 3). After these two steps, all the spectra were integrated over the areas of interest. […] Both vinylic and adduct peak areas were normalized relative to the internal standard signal peaks. […] The concentrations of both electrophile and adduct were then plotted as percentage against time (in minutes). (FIG. 5).

thiol peptide [4] = test system: thiol peptide
[5] = TLC monitoring of DCYA reactions with electrophiles; conditions: pH 10 buffer, 1-2.5 equiv. electrophile
Description: For visualization purposes, the controls, blank and reactions were monitored by TLC on silica gel plates. A known volume of each sample was loaded on a silica gel plate and eluted with appropriate solvent system. The TLC plates were examined λ366 for the presence of the yellow fluorescence spots corresponding DCYA, its dimer or possible reaction products.
In order to minimize the competition between auto-dimerization [(DCYA)2] and nucleophilic addition, the reaction time and the electrophile:nucleophile stoichiometry were optimized. Massoia lactone at different concentrations was used to monitor the progress of the reaction by TLC (FIG. 11). […] In order to adequately discriminate between compounds with variable electrophilic strength, the assay was optimized using 2 equivalents of electrophile.

[6] = test system: ARE-dependent gene activity in a recombinant cell line; conditions: cited from earlier work
[7] = pH 10
[8] = cited from earlier work
thiol peptide [9] = conditions: cited from earlier work
[10] = cited from earlier work; remark: listed apart in the source
[11] = Fluorescent response of DCYA in acetonitrile over time; assay type: physicochemical; conditions: micromolar solutions, after 3 h at room temperature
Protocol: The fluorescent responses of DCYA and DCYA disulfide in ACN were investigated at different concentrations using 1-300 μL/well in a 96 microplate reader at room temperature. Pure acetonitrile was used as a solvent control. The optimum excitation and emission wavelength combination was determined by performing excitation and emission scans. […] At these wavelengths, no solvent interference was observed. […] A linear response for DCYA was observed between 5-80 μM ([…]) concentrations with a R^2=0.995.

[12] = based on depletion of electrophile signal at 30 min
[13] = conversion of test chemical at 90 min, 1 equiv. DCYA, 0.1 equiv. DBN, CDCl3
[14] = reported results from the literature

Cys-DPRA binary classification: FP (thiol peptide [1]): 0
Cys-DPRA binary classification: TN (thiol peptide [1]): 1
Cys-DPRA binary classification: TP (thiol peptide [1]): 0
Fluorescence response, Reaction (R), average of 9 readings [2]: 1996.775 RFU
DCYA 100-RI [2]: 97.2
DCYA binary classification: FN [2]: 0
DCYA binary classification: FP [2]: 0
DCYA binary classification: TN [2]: 1
DCYA binary classification: TP [2]: 0
NMR assay reactivity / classification in words [3]: almost unreactive
Conversion at t30 (depletion of electrophile signal) ([3]; 30 min, 50 mM): 0%
NMR Method conversion ([3]; 90 min, 50 mM): 0%
NMR Classification [3, 12]: Non
Cys-DPRA binary classification: FN (thiol peptide [4]): 0
SMILES: O=c1ccc2ccccc2o1 [Coumarin]

DCYA 100-RI [2]: −8.5
DCYA binary classification: FN [2]: 0
DCYA binary classification: FP [2]: 0
DCYA assay reactivity / classification in words [2]: strongly reactive
DCYA binary classification: TN [2]: 0
DCYA binary classification: TP [2]: 1
NMR Classification [3]: Strong
NMR Method conversion ([3]; 10 min, 50 mM): >97* %
Conversion at t30 (depletion of electrophile signal) ([3]; 30 min, 50 mM): 97%
SMILES: C=C1C(=O)O[C@@H]2/C=C(\C)CC/C=C(\C)CC[C@@H]12 [Costunolide]
DCYA assay reactivity / classification in words ([2]; listed as costunolide): strong sensitizers
Result in human patch tests ([10]; reported in literature): Positive in human patch tests^6

Loss of fluorescence response [11]: 1.5-3.0%
SMILES: CN(C)c1cccc2c(S(=O)(=O)NCCS)cccc12 [DCYA, 5-(dimethylamino)-N-(2-mercaptoethyl)naphthalene-1-sulfonamide]

Conversion at t30 (depletion of electrophile signal) [3]: 99%
NMR Classification [3]: Strong
NMR Method conversion [3]: >99* %
DCYA 100-RI [7]: −6.7
SMILES: C=C1C(=O)O[C@@H]2C[C@@]3(C)CCC[C@H](C)C3=C[C@H]12 [Alantolactone]
Result in human patch tests ([10]; in vivo): Positive in human patch tests^6

Cys-DPRA binary classification: FN (thiol peptide [4]): 0
Cys-DPRA binary classification: FP (thiol peptide [4]): 0
Cys-DPRA binary classification: TN (thiol peptide [4]): 0
Cys-DPRA binary classification: TP (thiol peptide [4]): 1
DCYA 100-RI [7]: 91.1
SMILES: O=c1c(O)c(O)c1=O [Squaric acid]
KeratinoSens ™ EC3 [6]: >2000 µM
LLNA EC3 ([8]; mouse, in vivo): 4.3%
Cys-DPRA % Pept. remain. (thiol peptide [9]): 53.1%

Further lines, the molecule ahead of its results:

SMILES: CCCCC[C@@H]1CC=CC(=O)O1 [Massoia lactone]
Fluorescence response, Reaction (R), average of 9 readings ([2]; listed as ML): 6064.127 RFU and 6064 RFU
DCYA 100-RI [2]: 12.8
NMR assay reactivity / classification in words [3]: moderate to strong skin sensitizer
Conversion at t30 (depletion of electrophile signal) ([3]; at 30 min, 1 equiv. DCYA, listed as Massoialactone): 59%
Conversion at t30 (depletion of electrophile signal) ([3]; at 30 min, 1 equiv. DCYA, listed as massoia lactone): 60%
NMR Classification [3, 12]: Moderate-strong
NMR Method conversion [3, 13]: 66%
TLC: adduct formation with DCYA [5]: only a partial reaction was achieved

SMILES: Cn1sccc1=O [2-Methyl-4-isothiazolin-3-one]
Cys-DPRA binary classification: FN (thiol peptide [1]): 0
Cys-DPRA binary classification: FP (thiol peptide [1]): 0
Cys-DPRA binary classification: TN (thiol peptide [1]): 0
Cys-DPRA binary classification: TP (thiol peptide [1]): 1
KeratinoSens ™ EC3 ([6]; reported results (Table 7)): 29.56 µM
DCYA 100-RI ([7]; 2.1 mM): 16.4
DCYA binary classification: FN ([7]; 2.1 mM): 0
DCYA binary classification: FP ([7]; 2.1 mM): 0
DCYA binary classification: TN ([7]; 2.1 mM): 0
DCYA binary classification: TP ([7]; 2.1 mM): 1
LLNA EC3 ([8]; reported results (Table 7)): 1.9%
Cys-DPRA % Pept. remain. (thiol peptide [9]; [14]): 2.1%

SMILES: OCCc1ccc(O)c(O)c1 [3-Hydroxytyrosol]
NMR Classification [3]: Non^$
NMR assay reactivity / classification in words [3]: almost unreactive
Conversion at t30 (depletion of electrophile signal) ([3]; at 30 min, 1 equiv. DCYA): 6%
NMR Method conversion [3, 13]: 6%
DCYA 100-RI ([7]; 2.1 mM): 97.2
LLNA (EC3) ([8]; mouse, in vivo): 0.6%
LLNA Classification ([8]; mouse, in vivo): Strong
LLNA EC3 ([8]; mouse, in vivo): 0.6%
Cys-DPRA reactivity in words (thiol peptide [9]): non-reactive

SMILES: O=CC=Cc1ccccc1 [Cinnamaldehyde]
NMR Classification [3]: Moderate
NMR assay reactivity / classification in words [3]: moderate sensitizer
Conversion at t30 (depletion of electrophile signal) ([3]; at 30 min, 1 equiv. DCYA): 50%
NMR Method conversion [3, 13]: 50%
KeratinoSens ™ EC3 [6]: 63.94 µM
Cys-DPRA binary classification: FN (thiol peptide [4]): 0
Cys-DPRA binary classification: FP (thiol peptide [4]): 0
Cys-DPRA binary classification: TN (thiol peptide [4]): 0
Cys-DPRA binary classification: TP (thiol peptide [4]): 1
DCYA 100-RI ([7]; 2.1 mM): 85.1
DCYA binary classification: FN ([7]; 2.1 mM): 0
DCYA binary classification: FP ([7]; 2.1 mM): 0
DCYA binary classification: TN ([7]; 2.1 mM): 0
DCYA binary classification: TP ([7]; 2.1 mM): 1
LLNA (EC3) ([8]; mouse, in vivo): 3%
LLNA Classification ([8]; mouse, in vivo): Moderate
LLNA EC3 ([8]; mouse, in vivo): 3%
Cys-DPRA % Pept. remain. (thiol peptide [9]): 29.4%
Cys-DPRA, percentage of thiol peptide depleted (thiol peptide [9]): 70.6%

SMILES: O=C1C=CC(=O)C=C1 [p-Benzoquinone]
Cys-DPRA binary classification: FN (thiol peptide [1]): 0
Cys-DPRA binary classification: FP (thiol peptide [1]): 0
Cys-DPRA binary classification: TN (thiol peptide [1]): 0
Cys-DPRA binary classification: TP (thiol peptide [1]): 1
DCYA 100-RI [2]: 34.5
DCYA binary classification: FN [2]: 0
DCYA binary classification: FP [2]: 0
DCYA assay reactivity / classification in words [2]: correctly identified as a sensitizer
DCYA binary classification: TN [2]: 0
DCYA binary classification: TP [2]: 1
NMR assay reactivity / classification in words [3]: high reactivity
Depletion in less than five minutes ([3]; NMR, less than five minutes): > 95%
Conversion at t30 (depletion of electrophile signal) ([3]; at 30 min, 1 equiv. DCYA): 95%
NMR Classification [3, 12]: Strong
NMR Method conversion [3, 13]: 95^# %
KeratinoSens ™ EC3 ([6]; published literature (Table 1)): 32.77 µM
KeratinoSens ™ EC3 ([6]; reported results (Table 7)): 32.77 µM
LLNA (EC3) ([8]; effective concentration, published literature (Table 1)): 0.01%
LLNA Classification ([8]; published literature): Extreme
LLNA EC3 ([8]; reported results (Table 7)): 0.01%
Cys-DPRA, percentage of thiol peptide depleted (thiol peptide [9]; adopted from the literature): 99.0%
Cys-DPRA % Pept. remain. (thiol peptide [9]; [14]): 1%
